Among the data in ChEMBL document CHEMBL4715903, “Design, Synthesis, and Biological Evaluation of IRAK4-Targeting PROTACs” (ACS Med Chem Lett, 2021) are Activity and IC50 values, retold here.

What is called IC50 is the concentration needed to halve the response being measured.

Molecules are shown by their SMILES. Activity calls are given as the source filed them. No cut-off for these calls is given here.

The target of assay [1] is T1, Protein cereblon/Interleukin-1 receptor-associated kinase 4 (Homo sapiens) (UniProt Q9NWZ3+Q96SW2). Description: Protac activity at CRBN/IRAK4 in human OCILY10 cells harboring MYD88 L265P mutant assessed as induction of IRAK4 degradation by measuring reduction in IRAK4 protein level at 1 uM incubated for 24 hrs by Western blot analysis. The class given is cell-based. In general terms: Immunoblotting shows a protein as a band on a membrane.
T1 sequence (Q96SW2 whole entry, looked up, one chain of several): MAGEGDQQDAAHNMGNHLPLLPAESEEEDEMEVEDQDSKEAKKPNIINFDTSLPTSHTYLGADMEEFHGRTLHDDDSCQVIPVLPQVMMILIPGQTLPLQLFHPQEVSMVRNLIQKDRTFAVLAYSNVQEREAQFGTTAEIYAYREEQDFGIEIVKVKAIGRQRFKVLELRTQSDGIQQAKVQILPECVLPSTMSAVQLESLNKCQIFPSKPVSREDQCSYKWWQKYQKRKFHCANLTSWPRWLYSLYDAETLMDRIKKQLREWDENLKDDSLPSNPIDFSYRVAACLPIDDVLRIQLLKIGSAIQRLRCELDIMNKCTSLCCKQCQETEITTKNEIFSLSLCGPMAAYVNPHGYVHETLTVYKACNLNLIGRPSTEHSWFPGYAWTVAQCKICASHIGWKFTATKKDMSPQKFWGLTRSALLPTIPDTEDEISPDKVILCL

Assay [2] concerns the target T1, Protein cereblon/Interleukin-1 receptor-associated kinase 4 (Homo sapiens). Description: Protac activity at CRBN/IRAK4 in human TMD8 cells harboring MYD88 L265P mutant assessed as induction of IRAK4 degradation by measuring reduction in IRAK4 protein level at 1 uM incubated for 24 hrs by Western blot analysis. The class given is cell-based.
Assay [3] shares this target. Description: Protac activity at CRBN/IRAK4 in human OCILY10 cells harboring MYD88 L265P mutant assessed as induction of IRAK4 degradation by measuring reduction in IRAK4 protein level at 1 uM by Western blot analysis. The following applies: time 1-24 hrs, TDE = time-dependent effect. The class given is cell-based.
Assay [4] has the same target. Description: Protac activity at CRBN/IRAK4 in human TMD8 cells harboring MYD88 L265P mutant assessed as induction of IRAK4 degradation at 1 uM in presence of CRBN recruiter, pomalidomide by Western blot analysis. The class given is cell-based.
The target is the same in assay [5]. Description: Protac activity at CRBN/IRAK4 in human OCILY10 cells assessed as inhibition of IKKalpha/beta phosphorylation by Western blot analysis. In kind it is cell-based. The following applies: dose 0.1-10 µM.
Assay [6] has the same target. Description: Protac activity at CRBN/IRAK4 in human TMD8 cells harboring MYD88 L265P mutant assessed as induction of IRAK4 degradation at 1 uM pretreated with proteasome inhibitor, MG132 for 2 hrs followed by compound addition by Western blot analysis. The class given is cell-based.
The target is the same in assay [7]. Description: Protac activity at CRBN/IRAK4 in human OCILY10 cells harboring MYD88 L265P mutant assessed as induction of IRAK4 degradation at 1 uM in presence of IRAK4 inhibitor, Methyl 4-(5-ethoxy-1-methyl-6-(6-(trifluoromethyl)picolinamido)-1H-benzo[d]imidazol-2-yl)-2,2-dimethylbutanoate by Western blot analysis. In kind it is cell-based.
Assay [8] has the same target. Description: Protac activity at CRBN/IRAK4 in human TMD8 cells harboring MYD88 L265P mutant assessed as induction of IRAK4 degradation at 1 uM in presence of IRAK4 inhibitor, Methyl 4-(5-ethoxy-1-methyl-6-(6-(trifluoromethyl)picolinamido)-1H-benzo[d]imidazol-2-yl)-2,2-dimethylbutanoate by Western blot analysis. The class given is cell-based.
Assay [9] shares this target. Description: Protac activity at CRBN/IRAK4 in human OCILY10 cells assessed as inhibition of NF-kappaB p65 phosphorylation by Western blot analysis. The following applies: dose 0.1-10 µM. The class given is cell-based.
Assay [10] has the same target. Description: Protac activity at CRBN/IRAK4 in human TMD8 cells assessed as inhibition of IRAK4 phosphorylation by Western blot analysis. In kind it is cell-based. The following applies: dose 0.1-10 µM.
A further assay deals with OCI-LY19. Kind of assay: Antiproliferative activity against human OCILY19 cells harboring wild type MYD88 assessed as inhibition of cell growth incubated for 72 hrs by CCK-8 assay. The class given is functional, cell-based. (In general: Formazan colour is commonly taken as a measure of viable cells.)
In assay [11] the target is T1, Protein cereblon/Interleukin-1 receptor-associated kinase 4 (Homo sapiens). Kind of assay: Protac activity at CRBN/IRAK4 in human OCILY10 cells harboring MYD88 L265P mutant assessed as induction of IRAK4 degradation by measuring reduction in IRAK4 protein level incubated for 24 hrs by Western blot analysis. In kind it is cell-based. The following applies: dose 0.1-10 µM.

The subject of another assay is OCI-Ly10. Kind of assay: Antiproliferative activity against human OCILY10 cells harboring MYD88 L265P mutant assessed as inhibition of cell growth incubated for 72 hrs by CCK-8 assay. The following applies: OCI-Ly10, 72 h. The class given is functional, cell-based.
The subject of another assay is TMD8. Kind of assay: Antiproliferative activity against human TMD8 cells harboring MYD88 L265P mutant assessed as inhibition of cell growth incubated for 72 hrs by CCK-8 assay. The class given is functional, cell-based. The following applies: TMD8, 72 h.
The target of assay [12] is T1, Protein cereblon/Interleukin-1 receptor-associated kinase 4 (Homo sapiens). Description: Protac activity at CRBN/IRAK4 in human TMD8 cells assessed as inhibition of IKKalpha/beta phosphorylation by Western blot analysis. The following applies: dose 0.1-10 µM. The class given is cell-based.
Assay [13] shares this target. Description: Protac activity at CRBN/IRAK4 in human TMD8 cells harboring MYD88 L265P mutant assessed as induction of IRAK4 degradation by measuring reduction in IRAK4 protein level incubated for 24 hrs by Western blot analysis. In kind it is cell-based. The following applies: dose 0.1-10 µM.
The target is the same in assay [14]. Description: Protac activity at CRBN/IRAK4 in human OCILY10 cells harboring MYD88 L265P mutant assessed as induction of IRAK4 degradation at 1 uM in presence of CRBN recruiter, pomalidomide by Western blot analysis. The class given is cell-based.
For assay [15] the target is unchanged. Kind of assay: Protac activity at CRBN/IRAK4 in human OCILY10 cells harboring MYD88 L265P mutant assessed as induction of IRAK4 degradation at 1 uM pretreated with proteasome inhibitor, MG132 for 2 hrs followed by compound addition by Western blot analysis. In kind it is cell-based.
Assay [16] shares this target. Kind of assay: Protac activity at CRBN/IRAK4 in human TMD8 cells assessed as inhibition of NF-kappaB p65 phosphorylation by Western blot analysis. The following applies: dose 0.1-10 µM. The class given is cell-based.
The target is the same in assay [17]. Description: Protac activity at CRBN/IRAK4 in human OCILY10 cells assessed as inhibition of NFkappaB p65 phosphorylation at 2.5 to 20 uM incubated for 48 hrs by Western blot analysis. The class given is cell-based. The following applies: dose 2.5-20 µM.
For assay [18] the target is unchanged. Kind of assay: Protac activity at CRBN/IRAK4 in human OCILY10 cells assessed as inhibition of IRAK4 phosphorylation by Western blot analysis. The class given is cell-based. The following applies: dose 0.1-10 µM.
Assay [19] shares this target. Kind of assay: Protac activity at CRBN/IRAK4 in human TMD8 cells harboring MYD88 L265P mutant assessed as induction of IRAK4 degradation by measuring reduction in IRAK4 protein level at 1 uM by Western blot analysis. The following applies: time 1-24 hrs, TDE = time-dependent effect. The class given is cell-based.
Assay [20] addresses T2, Interleukin-1 receptor-associated kinase 4 (Homo sapiens, UniProt Q9NWZ3).
T2 sequence (Q9NWZ3 whole entry): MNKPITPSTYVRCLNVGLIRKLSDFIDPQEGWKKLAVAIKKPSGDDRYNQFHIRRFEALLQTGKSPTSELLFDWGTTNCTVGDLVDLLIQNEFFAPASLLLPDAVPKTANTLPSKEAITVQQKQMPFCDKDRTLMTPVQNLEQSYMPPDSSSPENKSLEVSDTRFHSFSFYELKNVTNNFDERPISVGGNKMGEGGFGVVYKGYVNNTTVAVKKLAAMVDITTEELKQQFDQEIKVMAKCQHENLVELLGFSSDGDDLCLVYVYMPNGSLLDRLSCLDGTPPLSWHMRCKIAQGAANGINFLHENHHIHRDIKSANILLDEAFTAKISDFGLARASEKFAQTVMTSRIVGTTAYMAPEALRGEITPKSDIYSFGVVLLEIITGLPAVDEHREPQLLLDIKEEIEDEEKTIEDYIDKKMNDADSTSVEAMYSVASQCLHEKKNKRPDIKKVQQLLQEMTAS
Kind of assay: Inhibition of human full length N-terminal His6-tagged recombinant IRAK4 expressed in baculovirus-infected Sf21 cells by Z'-LYTE assay.

For the compound `CCOc1cc2nc(CCC(C)(C)C(=O)NCCCCNc3cccc4c3C(=O)N(C3CCC(=O)NC3=O)C4=O)n(C)c2cc1NC(=O)c1cccc(C(F)(F)F)n1` (centres undefined), the result in assay [1] and in assay [2] was inactive.
Take `CCOc1cc2nc(CCC(C)(C)C(=O)NCCCCCCNc3cccc4c3C(=O)N(C3CCC(=O)NC3=O)C4=O)n(C)c2cc1NC(=O)c1cccc(C(F)(F)F)n1` (centres undefined): the result in assay [1] and in [2] was inactive.
Consider `CCOc1cc2nc(CCC(C)(C)C(=O)NCCOCCOCCNc3cccc4c3C(=O)N(C3CCC(=O)NC3=O)C4=O)n(C)c2cc1NC(=O)c1cccc(C(F)(F)F)n1` (centres undefined), for which the Activity result in assay [3] was “Tde”; in [5], “Dose-dependent effect”; in assay [9], “Dose-dependent effect”; in [10], “Dose-dependent effect”; in assay [11], “Dose-dependent effect”; in assay [12] it was “Dose-dependent effect”. Also, the Activity result in [13] was “Dose-dependent effect”; in [16] it was “Dose-dependent effect”; in assay [18] it was “Dose-dependent effect”; in assay [19], “Tde”. In addition, the result (in [4]; in [6]; in assay [7]; in assay [8]; in the assay on OCI-LY19; in assay [14]) was inactive. The result in assay [15] was inactive. Moreover, the result in [1], in [2] and in [17] was Active. Moreover, the concentration for half-maximal inhibition (IC50) in the assay with OCI-Ly10 turned out to be 4.6 µM; in the assay with TMD8, 7.6 µM.
Turning to `CCOc1cc2nc(CCC(C)(C)C(=O)NCCCCCNc3cccc4c3C(=O)N(C3CCC(=O)NC3=O)C4=O)n(C)c2cc1NC(=O)c1cccc(C(F)(F)F)n1` (centres undefined), the outcome in [1] and in assay [2] was inactive.
As for `CCOc1cc2nc(CCC(C)(C)C(=O)NCCCNc3cccc4c3C(=O)N(C3CCC(=O)NC3=O)C4=O)n(C)c2cc1NC(=O)c1cccc(C(F)(F)F)n1` (centres undefined), the outcome in [1] and in assay [2] was inactive.
In the case of `CCOc1cc2nc(CCC(C)(C)C(=O)NCCCCCCCNc3cccc4c3C(=O)N(C3CCC(=O)NC3=O)C4=O)n(C)c2cc1NC(=O)c1cccc(C(F)(F)F)n1` (centres undefined), the outcome in assay [1] was inactive. For the same compound, in assay [2], the result was Active.
Regarding `CCOc1cc2nc(CCC(C)(C)C(=O)OC)n(C)c2cc1NC(=O)c1cccc(C(F)(F)F)n1`, the IC50 is greater than 50 µM with OCI-Ly10, 0.0707 µM in [20] and greater than 50 µM in the assay on TMD8.
With `CCOc1cc2nc(CCC(C)(C)C(=O)NCCOCCNc3cccc4c3C(=O)N(C3CCC(=O)NC3=O)C4=O)n(C)c2cc1NC(=O)c1cccc(C(F)(F)F)n1` (centres undefined), the result in assay [1] and in assay [2] was inactive.
For `CCOc1cc2nc(CCC(C)(C)C(=O)NCCOCCOCCNc3cccc4c3C(=O)N(C3CCC(=O)N(C)C3=O)C4=O)n(C)c2cc1NC(=O)c1cccc(C(F)(F)F)n1` (centres undefined), the result in assay [1], in [2] and in [17] was inactive. Moreover, the 50% inhibitory concentration (IC50) in the assay with OCI-Ly10 is 11 µM; with TMD8, greater than 50 µM.
Take `CCOc1cc2nc(CCC(C)(C)C(=O)NCCNc3cccc4c3C(=O)N(C3CCC(=O)NC3=O)C4=O)n(C)c2cc1NC(=O)c1cccc(C(F)(F)F)n1` (centres undefined): the outcome in [1] and in assay [2] was inactive.
